Earlier results, collected in patent US11021437B2, “Pharmaceutical formulation for sublingual or buccal delivery of epinephrine or a pro-drug thereof” (Iono Pharma, LLC, priority 2016, dated 2021).

Columns and labels:
[1] = in vivo
[2] = 0.01 mg/kg subcutaneously in the deltoid region

Structure (SMILES) | delay before onset of seizure [1] [min] | t1/2 hydrolysis in vitro [days] | t1/2 oxidation in vitro [days] | time to maximum plasma epinephrine concentration [2] [min]
CNCC(O)c1ccc(OC(=O)C(C)(C)C)c(OC(=O)C(C)(C)C)c1 (stereo not shown) [Structure 7D, 4-(1-hydroxy-2-(methylamino)ethyl)-1,2-phenylene bis(2,2-dimethylpropanoate)] | 8 to 10 | 700 | 300 | 
CNC[C@H](O)c1ccc(O)c(O)c1 [Epinephrine] |  |  |  | ≤ 34 ± 14
